These results are taken from patent US20260317356A1, “SMALL MOLECULE MODULATORS OF OGG1” (AZKARRA THERAPEUTICS, INC., priority 2023, published 2026).

The ΔTm is the shift of the melting midpoint relative to a reference.

For the experiment, the target named is T1, nLucOGG1 in HeLa cells (Homo sapiens, UniProt O15527).
T1 construct: thermal shift read by NanoGlo luminescence
The experiment is described as follows: Cellular Thermal Shift Assay to measure compound affinity for nLucOGG1 in HeLa cells (CETSA DTm). The note with it: 10 μM compound, 37° C. 60 min, Tm vs DMSO control. The class given is cell-based. As for the experimental part:
Biological Example 2: Cellular Thermal Shift Assay to Measure Compound Affinity for ^nLucOGG1 in HeLa Cells (CETSA DTm)
Cell Culture and Transfection of Hela Cells with ^nLucOGG1: For all tests, Hela cells were maintained in growth medium, Dulbecco's Minimum Eagle Medium (Multicell: Cat #319-005-CL) supplemented with 10% heat-inactivated fetal bovine serum (Gibco: Cat #12484-028) at 37° C. and 5% CO2 in a humidified tissue culture incubator. Transient transfections were performed using the Lonza 4-D Nucleofector X unit according to the manufacturer's protocol (Lonza Cat #V4XC-1024). Briefly, for each transfection, 1.2×10^6 cells were centrifuged at 1000 RPM for 5 minutes at room temperature before being diluted in 100 μL SE solution containing 18% v/v supplement and 1.5 μg pNF1-N-empty or pNF1-N-OGG1a vector. The total volume was transferred to a 100 μL nucleofection cuvette prior to transfer to the apparatus where HeLa cell nucleofection protocol CN-114 was executed. Following nucleofection, 500 μL complete media was added to the cells in the cuvette before transferring to a 6-well dish containing 1.5 mL of complete media. Cells were left to incubate for 48 hours before performing all cellular thermal shift experiments.
Cellular Thermal Shift Assays for Target Engagement (CETSA): Forty-eight hours following nucleofection, cells were washed once with DPBS−/−(Multicell: Cat #311-425-CL) and lifted with 0.25% Trypsin-EDTA (Multicell: Cat #325-043-CL) prior to dilution in growth medium and centrifugation at 1000 RPM for 5 minutes at room temperature. The resulting cell pellet was then resuspended in growth medium, cells were counted and the volume adjusted to 500 k cells/mL (2×).
For delta Tm determination, OGG1 inhibitor compounds were dissolved in DMSO to a final working concentration of 20 mM. Working solutions were then diluted in complete media to 20 μM or 0.1% DMSO for the vehicle control (2×). 2×OGG1 inhibitor compound solutions or 0.1% DMSO control were then pre-dispensed into MicroAmp Optical 96-well PCR reaction plates (Applied Biosystems: Cat #4346906) at 50 μL/well. Next, 50 μL or 25 k cells/well from the 2× cell suspension was added to the pre-loaded PCR plates. All plates were prepared as duplicates, covered with adhesive plate sealers (Perkin Elmer: Cat #6050185) and left to incubate at 37° C. for 60 minutes. During incubation, sufficient NanoGlo luciferase assay reagents (Promega: Cat #N1120) were left to equilibrate to room temperature in the dark. Immediately before heating the plates, the NanoGlo substrate was mixed with the NanoGlo buffer at a 1:50 ratio. The thermal cycler (Veriti 96-Well Thermal Cycler, Thermo Fisher Scientific) was allowed to reach the designated temperature prior to placement of the PCR plate into the heating block. For Tm determination experiments, duplicate plates containing a fixed concentration of test compound (10 μM final) as well as vehicle control were prepared to perform a 12-point temperature gradient spanning 37-70° C. for 3 minutes. Therefore, two thermal cycler protocols were set up covering two 6-step temperature gradients ranging from 37-52° C. and 52-70° C. Plates were then allowed to cool at room temperature for 5 minutes after the heat treatment followed by transfer of 75 μL of the reaction into a 96-well white polystyrene microplate (Corning: Cat #CLS3903) and addition of 75 μL of the prepared NanoGlo mixture. Microplates were then left to shake in the dark for 5 minutes before total luminescence was measured on a SpectraMax IX3 plate reader. The luminescence value obtained at each temperature was normalized to the luminescence obtained at 37° C. and the ratio obtained was plotted against the temperature. A Boltzman Sigmoidal non-linear regression was applied to the resulting data to determine Tm values and the difference between the Tm value for a given OGG1 inhibitor relative to the DMSO vehicle control was the delta Tm.

T1 sequence (O15527 whole entry): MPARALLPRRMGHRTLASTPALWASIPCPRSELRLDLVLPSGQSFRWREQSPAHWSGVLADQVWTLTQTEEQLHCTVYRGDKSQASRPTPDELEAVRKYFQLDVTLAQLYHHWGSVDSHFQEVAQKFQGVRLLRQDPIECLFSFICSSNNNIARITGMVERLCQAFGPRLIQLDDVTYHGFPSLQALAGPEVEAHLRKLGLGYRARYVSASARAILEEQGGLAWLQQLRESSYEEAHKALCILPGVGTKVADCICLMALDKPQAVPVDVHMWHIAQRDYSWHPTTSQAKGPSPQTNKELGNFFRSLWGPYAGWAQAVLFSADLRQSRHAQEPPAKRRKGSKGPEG

As for `COc1cc(NC(=O)[C@H]2CC[C@@H](N3Cc4c(C)cnc(CNC(C)=O)c4NC3=O)CC2)ccc1C` [Example 19, (1s,4s)-4-(8-(Acetamidomethyl)-5-methyl-2-oxo-1,2-dihydropyrido[3,4-d]pyrimidin-3(4H)-yl)-N-(3-methoxy-4-methylphenyl)cyclohexanecarboxamide], the ΔTm at 10 µM is 8 to 10 °C.

Consider `COc1ccc(NC(=O)[C@H]2CC[C@@H](N3Cc4c(C)cc(NCCN(C)C)cc4NC3=O)CC2)cc1C` [Example 97, (1s,4s)-4-(7-(2-(dimethylamino)ethylamino)-5-methyl-2-oxo-1,2-dihydroquinazolin-3(4H)-yl)-N-(4-methoxy-3-methylphenyl)cyclohexanecarboxamide], for which the shift in melting temperature (ΔTm) at 10 µM was 8 to 10 °C.

`COc1cc(NC(=O)[C@H]2CC[C@@H](N3Cc4c(C)ccc(OCC5CNC5)c4NC3=O)CC2)ccc1C` [Example 44, (1s,4s)-4-(8-(Azetidin-3-ylmethoxy)-5-methyl-2-oxo-1,2-dihydroquinazolin-3(4H)-yl)-N-(3-methoxy-4-methylphenyl)cyclohexanecarboxamide]: the ΔTm at 10 µM fell in the range of 8 to 10 °C.

As for `COc1ccc(NC(=O)[C@]2(C)CC[C@H](N3Cc4c(C)ccc(OC)c4NC3=O)CC2)cc1C#N` (single isomer, unassigned) [Example 9, (1s,4s)-N-(3-cyano-4-methoxyphenyl)-4-(8-methoxy-5-methyl-2-oxo-1,2-dihydroquinazolin-3(4H)-yl)-1-methylcyclohexanecarboxamide], the shift in melting temperature (ΔTm) at 10 µM was 8 to 10 °C.

Turning to `COc1cc(NC(=O)[C@H]2CC[C@@H](N3Cc4c(C)ccc(N5CC6(COC6)C5)c4NC3=O)CC2)ccc1C` [Example 35, (1s,4s)-N-(3-Methoxy-4-methylphenyl)-4-(5-methyl-2-oxo-8-(2-oxa-6-azaspiro[3.3]heptan-6-yl)-1,2-dihydroquinazolin-3(4H)-yl)cyclohexanecarboxamide], the shift in melting temperature (ΔTm) at 10 µM is 6 to 8 °C.

With `COc1cc(NC(=O)[C@H]2CC[C@@H](N3Cc4ccccc4NC3=O)CC2)ccc1C` [Example 67, (1s,4s)-N-(3-methoxy-4-methylphenyl)-4-(2-oxo-1,2-dihydroquinazolin-3(4H)-yl)cyclohexanecarboxamide], the ΔTm at 10 µM was 6 to 8 °C.

Turning to `COc1ccc(NC(=O)[C@]2(C)CC[C@H](N3Cc4c(C)cccc4NC3=O)CC2)cc1Cl` (single isomer, unassigned) [Example 103, (1s,4s)-N-(3-chloro-4-methoxyphenyl)-1-methyl-4-(5-methyl-2-oxo-1,2-dihydroquinazolin-3(4H)-yl)cyclohexanecarboxamide], the shift in melting temperature (ΔTm) at 10 µM lay in the range of 8 to 10 °C.

`COc1ccc(NC(=O)[C@H]2CC[C@@H](N3Cc4c(C)ccc(OC)c4NC3=O)CC2)cc1Cl` [Example 3, (1s,4s)-N-(3-Chloro-4-methoxyphenyl)-4-(8-methoxy-5-methyl-2-oxo-1,2-dihydroquinazolin-3(4H)-yl)cyclohexanecarboxamide]: the ΔTm at 10 µM was in the range of 6 to 8 °C.

On to `COc1ccc(NC(=O)[C@H]2CC[C@@H](N3Cc4c(C)cccc4C3=O)CC2)cc1C#N` [Example 239, (1s,4s)-N-(3-Cyano-4-methoxyphenyl)-4-(4-methyl-1-oxoisoindolin-2-yl)cyclohexanecarboxamide], for which the thermal shift (ΔTm) at 10 µM lay within 6 to 8 °C.

Turning to `COc1ccc(NC(=O)[C@H]2CC[C@@H](N3Cc4c(C)ccnc4NC3=O)CC2)cc1` [Example 15, (1s,4s)-N-(4-methoxyphenyl)-4-(5-methyl-2-oxo-1,2-dihydropyrido[2,3-d]pyrimidin-3(4H)-yl)cyclohexanecarboxamide], the ΔTm at 10 µM is 6 to 8 °C.

Regarding `COc1ccc(NC(=O)[C@H]2CC[C@@H](N3Cc4c(C)ccnc4NC3=O)CC2)cc1Cl` [Example 14, (1s,4s)-N-(3-Chloro-4-methoxyphenyl)-4-(5-methyl-2-oxo-1,2-dihydropyrido[2,3-d]pyrimidin-3(4H)-yl)cyclohexanecarboxamide], the thermal shift (ΔTm) at 10 µM was in the range of 6 to 8 °C.
